Test results: PubChem BioAssay AID1963851 (Molecular Pharmacology Branch, DTP, NCI, 2024)

Tested on: 188146-221-R-J1-PDC complex spheroid viability
Experiment: Anticancer human tumor 188146-221-R-J1-PDC patient-derived colon adenocarcinoma cell line growth inhibition [POLQ]
Details: for IC50: curve of first compound; for viability, T/C: stronger effect = lower value
Procedure, shortened: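 PDC + HUVEC + MSC complex spheroids; POLQ inhibitors ± partner drugs; top conc. at/near clinical Cmax, else 10 microM (SN-38 1 microM), half-log dilutions; 37 degrees C, 5% CO2.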

[1] = second compound 0.0316 µM, first compound 0.0316 µM
[2] = second compound 0.0316 µM, first compound 0.1 µM
[3] = second compound 0.0316 µM, first compound 0.316 µM
[4] = second compound 0.0316 µM, first compound 1 µM
[5] = second compound 0.0316 µM, first compound 3.16 µM
[6] = second compound 0.0316 µM, first compound 10 µM
[7] = second compound 0.1 µM, first compound 0.0316 µM
[8] = second compound 0.1 µM, first compound 0.1 µM
[9] = second compound 0.1 µM, first compound 0.316 µM
[10] = second compound 0.1 µM, first compound 1 µM
[11] = second compound 0.1 µM, first compound 3.16 µM
[12] = second compound 0.1 µM, first compound 10 µM
[13] = second compound 0.316 µM, first compound 0.0316 µM
[14] = second compound 0.316 µM, first compound 0.1 µM
[15] = second compound 0.316 µM, first compound 0.316 µM
[16] = second compound 0.316 µM, first compound 1 µM
[17] = second compound 0.316 µM, first compound 3.16 µM
[18] = second compound 0.316 µM, first compound 10 µM
[19] = second compound 1 µM, first compound 0.0316 µM
[20] = second compound 1 µM, first compound 0.1 µM
[21] = second compound 1 µM, first compound 0.316 µM
[22] = second compound 1 µM, first compound 1 µM
[23] = second compound 1 µM, first compound 3.16 µM
[24] = second compound 1 µM, first compound 10 µM
[25] = second compound 3.16 µM, first compound 0.0316 µM
[26] = second compound 3.16 µM, first compound 0.1 µM
[27] = second compound 3.16 µM, first compound 0.316 µM
[28] = second compound 3.16 µM, first compound 1 µM
[29] = second compound 3.16 µM, first compound 3.16 µM
[30] = second compound 3.16 µM, first compound 10 µM
[31] = second compound 10 µM, first compound 0.0316 µM
[32] = second compound 10 µM, first compound 0.1 µM
[33] = second compound 10 µM, first compound 0.316 µM
[34] = second compound 10 µM, first compound 1 µM
[35] = second compound 10 µM, first compound 3.16 µM
[36] = second compound 10 µM, first compound 10 µM
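Further: spheroids exposed to compounds for seven days.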
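Wherever viability, T/C is given: 100% = DMSO vehicle control viability.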

CC(=O)O[C@H]1C(=O)[C@@]2(C)[C@H]([C@H](OC(=O)c3ccccc3)[C@]3(O)C[C@H](OC(=O)[C@H](O)[C@@H](NC(=O)c4ccccc4)c4ccccc4)C(C)=C1C3(C)C)[C@]1(OC(C)=O)CO[C@@H]1C[C@@H]2O + COC1C(OC(N)=O)C(O)C(Oc2ccc3c(O)c(NC(=O)c4ccc(O)c(CC=C(C)C)c4)c(=O)oc3c2C)OC1(C)C
IC50 (second compound 0.0316 µM): 0.0164 µM | IC50 (second compound 0.1 µM): 0.0172 µM | IC50 (second compound 0.316 µM): 0.0168 µM | IC50 (second compound 1 µM): 0.0144 µM | IC50 (second compound 3.16 µM): 0.0172 µM | IC50 (second compound 10 µM): 0.016 µM | viability, T/C (second compound 0.0316 µM, first compound 0.00949 µM): 76% | viability, T/C (second compound 0.0316 µM, first compound 0.03 µM): 21% | viability, T/C (second compound 0.0316 µM, first compound 0.0949 µM): 10.8% | viability, T/C (second compound 0.0316 µM, first compound 0.3 µM): 10.2% | viability, T/C (second compound 0.0316 µM, first compound 0.949 µM): 10.4% | viability, T/C (second compound 0.0316 µM, first compound 3 µM): 9.91% | viability, T/C (second compound 0.1 µM, first compound 0.00949 µM): 80.1% | viability, T/C (second compound 0.1 µM, first compound 0.03 µM): 21.7% | viability, T/C (second compound 0.1 µM, first compound 0.0949 µM): 12.2% | viability, T/C (second compound 0.1 µM, first compound 0.3 µM): 9.8% | viability, T/C (second compound 0.1 µM, first compound 0.949 µM): 8.82% | viability, T/C (second compound 0.1 µM, first compound 3 µM): 9.35% | viability, T/C (second compound 0.316 µM, first compound 0.00949 µM): 75.9% | viability, T/C (second compound 0.316 µM, first compound 0.03 µM): 24.3% | viability, T/C (second compound 0.316 µM, first compound 0.0949 µM): 9.19% | viability, T/C (second compound 0.316 µM, first compound 0.3 µM): 11.9% | viability, T/C (second compound 0.316 µM, first compound 0.949 µM): 9.74% | viability, T/C (second compound 0.316 µM, first compound 3 µM): 11.2% | viability, T/C (second compound 1 µM, first compound 0.00949 µM): 66.3% | viability, T/C (second compound 1 µM, first compound 0.03 µM): 21.7% | viability, T/C (second compound 1 µM, first compound 0.0949 µM): 10.2% | viability, T/C (second compound 1 µM, first compound 0.3 µM): 10% | viability, T/C (second compound 1 µM, first compound 0.949 µM): 10.6% | viability, T/C (second compound 1 µM, first compound 3 µM): 9.98% | viability, T/C (second compound 3.16 µM, first compound 0.00949 µM): 84% | viability, T/C (second compound 3.16 µM, first compound 0.03 µM): 18.2% | viability, T/C (second compound 3.16 µM, first compound 0.0949 µM): 12.6% | viability, T/C (second compound 3.16 µM, first compound 0.3 µM): 8.24% | viability, T/C (second compound 3.16 µM, first compound 0.949 µM): 11.4% | viability, T/C (second compound 3.16 µM, first compound 3 µM): 10.8% | viability, T/C (second compound 10 µM, first compound 0.00949 µM): 75.6% | viability, T/C (second compound 10 µM, first compound 0.03 µM): 19.2% | viability, T/C (second compound 10 µM, first compound 0.0949 µM): 11.2% | viability, T/C (second compound 10 µM, first compound 0.3 µM): 9.41% | viability, T/C (second compound 10 µM, first compound 0.949 µM): 12.8% | viability, T/C (second compound 10 µM, first compound 3 µM): 11.8%

C=CC(=O)N1CCN(c2nc(=O)n(-c3c(C)ccnc3C(C)C)c3nc(-c4c(O)cccc4F)c(F)cc23)C(C)C1 (stereo not drawn) + Cc1cccc(N(C)C(=O)C2C(O)CCN2c2nc(C)cc(C(F)(F)F)c2C#N)c1
IC50 (second compound 0.0316 µM): > 10 µM | IC50 (second compound 0.1 µM): > 10 µM | IC50 (second compound 0.316 µM): > 10 µM | IC50 (second compound 1 µM): > 10 µM | IC50 (second compound 3.16 µM): > 10 µM | IC50 (second compound 10 µM): > 10 µM | viability, T/C [1]: 104% | viability, T/C [2]: 103% | viability, T/C [3]: 93% | viability, T/C [4]: 107% | viability, T/C [5]: 97% | viability, T/C [6]: 83.8% | viability, T/C [7]: 108% | viability, T/C [8]: 105% | viability, T/C [9]: 91.9% | viability, T/C [10]: 103% | viability, T/C [11]: 92.8% | viability, T/C [12]: 89% | viability, T/C [13]: 101% | viability, T/C [14]: 105% | viability, T/C [15]: 103% | viability, T/C [16]: 95.5% | viability, T/C [17]: 85.9% | viability, T/C [18]: 81.5% | viability, T/C [19]: 95.6% | viability, T/C [20]: 107% | viability, T/C [21]: 102% | viability, T/C [22]: 104% | viability, T/C [23]: 84.7% | viability, T/C [24]: 73.3% | viability, T/C [25]: 98.7% | viability, T/C [26]: 104% | viability, T/C [27]: 97.3% | viability, T/C [28]: 100% | viability, T/C [29]: 94.6% | viability, T/C [30]: 83.4% | viability, T/C [31]: 100% | viability, T/C [32]: 82.3% | viability, T/C [33]: 91.8% | viability, T/C [34]: 84.8% | viability, T/C [35]: 92.6% | viability, T/C [36]: 77.2%

C=CC(=O)N1CCN(c2nc(=O)n(-c3c(C)ccnc3C(C)C)c3nc(-c4c(O)cccc4F)c(F)cc23)C(C)C1 (stereo not drawn) + COC1C(OC(N)=O)C(O)C(Oc2ccc3c(O)c(NC(=O)c4ccc(O)c(CC=C(C)C)c4)c(=O)oc3c2C)OC1(C)C
IC50 (second compound 0.0316 µM): > 10 µM | IC50 (second compound 0.1 µM): > 10 µM | IC50 (second compound 0.316 µM): > 10 µM | IC50 (second compound 1 µM): > 10 µM | IC50 (second compound 3.16 µM): > 10 µM | IC50 (second compound 10 µM): > 10 µM | viability, T/C [1]: 103% | viability, T/C [2]: 97% | viability, T/C [3]: 85.7% | viability, T/C [4]: 99.1% | viability, T/C [5]: 98.7% | viability, T/C [6]: 72.4% | viability, T/C [7]: 107% | viability, T/C [8]: 107% | viability, T/C [9]: 94.6% | viability, T/C [10]: 105% | viability, T/C [11]: 88.1% | viability, T/C [12]: 92.6% | viability, T/C [13]: 110% | viability, T/C [14]: 107% | viability, T/C [15]: 103% | viability, T/C [16]: 110% | viability, T/C [17]: 95.3% | viability, T/C [18]: 83.6% | viability, T/C [19]: 93.2% | viability, T/C [20]: 105% | viability, T/C [21]: 113% | viability, T/C [22]: 101% | viability, T/C [23]: 101% | viability, T/C [24]: 90.4% | viability, T/C [25]: 107% | viability, T/C [26]: 109% | viability, T/C [27]: 100% | viability, T/C [28]: 101% | viability, T/C [29]: 90.3% | viability, T/C [30]: 87.2% | viability, T/C [31]: 96% | viability, T/C [32]: 107% | viability, T/C [33]: 108% | viability, T/C [34]: 97.5% | viability, T/C [35]: 115% | viability, T/C [36]: 93.7%

O=C(c1cc(Cc2n[nH]c(=O)c3ccccc23)ccc1F)N1CCN(C(=O)C2CC2)CC1 + COC1C(OC(N)=O)C(O)C(Oc2ccc3c(O)c(NC(=O)c4ccc(O)c(CC=C(C)C)c4)c(=O)oc3c2C)OC1(C)C
IC50 (second compound 0.0316 µM): > 10 µM | IC50 (second compound 0.1 µM): > 10 µM | IC50 (second compound 0.316 µM): > 10 µM | IC50 (second compound 1 µM): > 10 µM | IC50 (second compound 3.16 µM): > 10 µM | IC50 (second compound 10 µM): > 10 µM | viability, T/C [1]: 93.5% | viability, T/C [2]: 88.6% | viability, T/C [3]: 100% | viability, T/C [4]: 98.4% | viability, T/C [5]: 99.5% | viability, T/C [6]: 74.3% | viability, T/C [7]: 107% | viability, T/C [8]: 102% | viability, T/C [9]: 97.1% | viability, T/C [10]: 106% | viability, T/C [11]: 91.3% | viability, T/C [12]: 85.2% | viability, T/C [13]: 108% | viability, T/C [14]: 94.1% | viability, T/C [15]: 97.7% | viability, T/C [16]: 105% | viability, T/C [17]: 90.7% | viability, T/C [18]: 72.7% | viability, T/C [19]: 106% | viability, T/C [20]: 104% | viability, T/C [21]: 104% | viability, T/C [22]: 96.3% | viability, T/C [23]: 89.5% | viability, T/C [24]: 74.7% | viability, T/C [25]: 108% | viability, T/C [26]: 107% | viability, T/C [27]: 101% | viability, T/C [28]: 91.7% | viability, T/C [29]: 105% | viability, T/C [30]: 96.6% | viability, T/C [31]: 101% | viability, T/C [32]: 103% | viability, T/C [33]: 98.8% | viability, T/C [34]: 97.1% | viability, T/C [35]: 108% | viability, T/C [36]: 80.5%
